For the series, the target named is Beta-lactamase (Enterobacter cloacae) (UniProt P05364). Briefly: The beta-lactamase inactivation partition ratio of the compound.

In the case of `CC(=O)OCC1=C(C(=O)[O-])N2C(=O)/C(=C/c3ccccn3)[C@H]2S(=O)(=O)C1.[Na+]`, the Partition ratio is 20.
In the case of `CC(=O)OCC1=C(C(=O)[O-])N2C(=O)C(=C=CC(C)(C)C)[C@H]2S(=O)(=O)C1.[Na+]`, the Partition ratio is 12.

These data come from ChEMBL document CHEMBL1128595, “Synthesis and biological activity of 7-alkylidenecephems” (J Med Chem, 1995).
